Results as given in ChEMBL document CHEMBL1147993, “Inhibitory effect of obovatal on the migration and invasion of HT1080 cells via the inhibition of MMP-2” (Bioorg Med Chem, 2007).
The source made the active and inactive calls. The calls are words filed in the database; no cut-off is given here.

Columns and labels:
[1] = system: HFF; test: Effect on growth of HFF cells after 48 hrs by WST1 reduction assay; type: cell-based; conditions: human
[2] = system: HT-1080; test: Reduction of MMP2 protein expression in HT1080 cells at 20 uM ny Western blot; type: functional, Homo sapiens; parameters: scale not given: the % may be the effect or the level left
[3] = molecular target: T1, 72 kDa type IV collagenase (Homo sapiens, UniProt P08253); test: Inhibition of MMP2 expressed in insect cells
Target sequence in this assay (P08253 whole entry): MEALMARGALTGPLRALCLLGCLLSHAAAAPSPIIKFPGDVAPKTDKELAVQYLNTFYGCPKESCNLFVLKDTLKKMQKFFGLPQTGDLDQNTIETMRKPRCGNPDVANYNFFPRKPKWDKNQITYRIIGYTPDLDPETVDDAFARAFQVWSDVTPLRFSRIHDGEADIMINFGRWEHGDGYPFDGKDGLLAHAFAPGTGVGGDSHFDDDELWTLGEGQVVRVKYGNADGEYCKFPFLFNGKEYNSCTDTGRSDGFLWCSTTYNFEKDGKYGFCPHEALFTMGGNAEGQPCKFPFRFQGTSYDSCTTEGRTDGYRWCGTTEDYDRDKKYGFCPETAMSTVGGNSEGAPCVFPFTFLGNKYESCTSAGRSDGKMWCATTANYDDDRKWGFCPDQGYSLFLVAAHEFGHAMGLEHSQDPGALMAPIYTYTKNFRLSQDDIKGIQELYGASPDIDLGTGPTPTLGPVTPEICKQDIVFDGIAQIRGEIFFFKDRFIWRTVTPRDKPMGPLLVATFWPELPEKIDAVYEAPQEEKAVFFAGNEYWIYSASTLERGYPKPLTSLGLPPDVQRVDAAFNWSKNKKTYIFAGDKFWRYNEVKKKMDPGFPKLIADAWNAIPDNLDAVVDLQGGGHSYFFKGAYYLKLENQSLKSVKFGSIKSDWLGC

[4] = system: HCT-116; test: Growth inhibition of HCT116 cells up to 50 uM after 48 hrs by WST1 reduction assay; type: functional, cell-based; conditions: Homo sapiens
[5] = system: HT-1080; test: Reduction of MMP2 mRNA expression in HT1080 cells at 20 uM by RT-PCR; type: functional, Homo sapiens; parameters: scale not given: the % may be the effect or the level left
[6] = system: HT-1080; test: Inhibition of invasion of HT1080 cells at 20 uM after 24 hrs by Matrigel invasion assay relative to control; type: functional; conditions: Homo sapiens, HT-1080, 24 h
[7] = molecular target: T1, 72 kDa type IV collagenase; test: Inhibition of MMP2 in HT1080 cells at 15 uM by gelatin zymography assay; type: cell-based; conditions: HT-1080
Target sequence in this assay (P08253 110-660 limits assumed): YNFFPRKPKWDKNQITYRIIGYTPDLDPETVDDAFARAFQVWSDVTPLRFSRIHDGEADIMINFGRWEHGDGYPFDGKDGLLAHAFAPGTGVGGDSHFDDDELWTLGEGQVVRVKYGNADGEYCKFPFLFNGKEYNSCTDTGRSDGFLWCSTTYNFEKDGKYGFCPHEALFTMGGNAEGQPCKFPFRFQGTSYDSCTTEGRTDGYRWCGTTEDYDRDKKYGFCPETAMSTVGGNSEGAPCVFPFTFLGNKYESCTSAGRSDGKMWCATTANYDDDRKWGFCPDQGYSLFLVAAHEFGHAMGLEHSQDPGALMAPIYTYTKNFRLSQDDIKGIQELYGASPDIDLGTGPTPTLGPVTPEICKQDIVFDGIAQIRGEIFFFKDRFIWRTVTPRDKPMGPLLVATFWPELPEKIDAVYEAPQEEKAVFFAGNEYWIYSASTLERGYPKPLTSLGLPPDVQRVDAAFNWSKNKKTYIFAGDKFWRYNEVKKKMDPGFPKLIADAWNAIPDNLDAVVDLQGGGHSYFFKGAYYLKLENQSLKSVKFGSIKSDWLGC

[8] = system: HT-1080; test: Inhibition of migration of HT1080 cells at 20 uM by wound healing assay; type: functional, cell-based; conditions: Homo sapiens

IC50 [3]: 800 nM
Activity [7]: Active
Structure (SMILES): C=CCc1ccc(Oc2cc(/C=C/C=O)cc(O)c2O)cc1 [OBOVATAL]
Activity [1]: Non-toxic
Activity [2]: 70%
Activity [4]: Active
Activity [5]: 70%
inhibition at 20 µM [6]: 70%
Activity [8]: Active
